Results taken from patent publication US20220332708A1 (Cytokinetics, Inc., priority 2021, published 2022).

Test system: Bovine cardiac myofibrils
Test: Dose-dependent myofibril ATPase modulation (calcium-buffered, pyruvate kinase and lactate dehydrogenase-coupled ATPase assay at pCa25)
Format: biochemical
Details: concentration at which ATPase activity was 1.4-fold higher than the bottom of the dose curve, mean of a minimum of two independent tests
Protocol: In Vitro Model of Dose-Dependent Myofibril ATPase Modulation
Dose responses were measured using a calcium-buffered, pyruvate kinase and lactate dehydrogenase-coupled ATPase assay containing the following reagents (concentrations expressed are final assay concentrations): Potassium PIPES (12 mM), MgCl2 (2 mM), ATP (1 mM), DTT (1 mM), BSA (0.1 mg/ml), NADH (0.5 mM), PEP (1.5 mM), pyruvate kinase (4 U/ml), lactate dehydrogenase (8 U/ml), and antifoam (90 ppm). The pH was adjusted to 6.80 at 22° C. by addition of potassium hydroxide. Calcium levels were controlled by a buffering system containing 0.6 mM EGTA and varying concentrations of calcium, to achieve a free calcium concentration of 1×10^−4 M to 1×10^−8 M.
Bovine cardiac myofibrils were obtained by homogenizing the appropriate tissue in the presence of detergent. Such treatment removes membranes and majority of soluble cytoplasmic proteins but leaves intact cardiac sarcomeric acto-myosin apparatus. Concentrations of myofibrils were adjusted to achieve the necessary rate of ATP hydrolysis (typically 0.25-1.0 mg/ml).
Chemical entity dose responses were measured at the calcium concentration corresponding to 25% of maximal ATPase activity (pCa25), so a preliminary experiment was performed to test the response of the ATPase activity to free calcium concentrations in the range of 1×10^−4 M to 1×10^−8 M. Subsequently, the assay mixture was adjusted to the pCa25. Assays were performed by first preparing a dilution series of test chemical entity, each with an assay mixture containing potassium Pipes, MgCl2, BSA, DTT, pyruvate kinase, lactate dehydrogenase, myofibrils, antifoam, EGTA, CaCl2), and water. The assay was started by adding an equal volume of solution containing potassium Pipes, MgCl2, BSA, DTT, ATP, NADH, PEP, antifoam, and water. ATP hydrolysis was monitored by absorbance at 340 nm. The resulting dose response curve was fit by the 4 parameter equation y=Bottom+((Top−Bottom)/(1+((EC50/X)^Hill))). […] AC1.4 values reported in the table below are mean values based on a minimum of two independent tests.

Row | AC1.4 [µM] | SMILES
1 | 0.3162 | Cc1[nH]c(S(=O)(=O)N[C@@H]2COc3cc(F)c(F)cc3C2)cc1C(=O)N1CC(C)(C#N)C1 [Compound 70, (S)-4-(3-cyano-3-methylazetidine-1-carbonyl)-N-(6,7-difluorochroman-3-yl)-5-methyl-1H-pyrrole-2-sulfonamide]
2 | 0.2269 | Cc1[nH]c(S(=O)(=O)N[C@@H]2Cc3cc(F)c(Cl)cc3C2)cc1C(=O)N1CC2(C1)CC(F)(F)C2 [Compound 97, (R)-N-(5-chloro-6-fluoro-2,3-dihydro-1H-inden-2-yl)-4-(6,6-difluoro-2-azaspiro[3.3]heptane-2-carbonyl)-5-methyl-1H-pyrrole-2-sulfonamide]
3 | 2.8354 | CNc1cc2c(cc1S(=O)(=O)NC1CCN(c3ccccc3)CC1)c(=O)[nH]c(=O)n2C [Compound 10, 1-Methyl-7-(methylamino)-2,4-dioxo-N-(1-phenylpiperidin-4-yl)-1,2,3,4-tetrahydroquinazoline-6-sulfonamide]
4 | 1.274 | Cc1[nH]c(S(=O)(=O)NC23COc4cc(F)c(Cl)cc4C2C3)cc1C(=O)N1CC(C)(C#N)C1 (centres unmarked) [Compound 31, N-(6-chloro-5-fluoro-1,7b-dihydrocyclopropa[c]chromen-1a(2H)-yl)-4-(3-cyano-3-methylazetidine-1-carbonyl)-5-methyl-1H-pyrrole-2-sulfonamide]
5 | 0.2434 | Cc1[nH]c(S(=O)(=O)N[C@@H]2CCc3c([nH]c4ccccc34)C2)cc1C(=O)N1CCC1 [Compound 41, (R)-4-(azetidine-1-carbonyl)-5-methyl-N-(2,3,4,9-tetrahydro-1H-carbazol-2-yl)-1H-pyrrole-2-sulfonamide]
6 | 0.0793 | Cc1[nH]c(S(=O)(=O)N[C@@H]2COc3cc(F)c(Cl)cc3C2)cc1C(=O)N1CC(C)(C#N)C1 [Compound 73, (S)-N-(6-chloro-7-fluorochroman-3-yl)-4-(3-cyano-3-methylazetidine-1-carbonyl)-5-methyl-1H-pyrrole-2-sulfonamide]
7 | 0.9674 | Cc1nn([C@H]2C[C@H](NS(=O)(=O)c3cc(C(=O)N4CC(C#N)C4)c(C)[nH]3)C2)cc1C(F)(F)F [Compound 56, 4-(3-Cyanoazetidine-1-carbonyl)-5-methyl-N-((trans)-3-(3-methyl-4-(trifluoromethyl)-1H-pyrazol-1-yl)cyclobutyl)-1H-pyrrole-2-sulfonamide]
8 | 1.3618 | Cc1cc(S(=O)(=O)N[C@@H]2COc3cc(F)c(Cl)cc3[C@@H]2O)cc(N2CC(C#N)C2)n1 [Compound 85, N-((3R,4S)-6-chloro-7-fluoro-4-hydroxychroman-3-yl)-2-(3-cyanoazetidin-1-yl)-6-methylpyridine-4-sulfonamide]
9 | 0.6173 | Cc1[nH]c(S(=O)(=O)N[C@@H]2Cc3cc(Cl)c(Cl)cc3[C@@]2(C)O)cc1C(=O)N1CC(C)(C#N)C1 [Compound 82, 4-(3-cyano-3-methylazetidine-1-carbonyl)-N-((1R,2R)-5,6-dichloro-1-hydroxy-1-methyl-2,3-dihydro-1H-inden-2-yl)-5-methyl-1H-pyrrole-2-sulfonamide]
10 | 0.9577 | Cc1[nH]c(S(=O)(=O)N[C@@H]2Cc3cc(F)c(Cl)cc3C2)cc1C(=O)N1CC(C)(O)C1 [Compound 95, (R)-N-(5-chloro-6-fluoro-2,3-dihydro-1H-inden-2-yl)-4-(3-hydroxy-3-methylazetidine-1-carbonyl)-5-methyl-1H-pyrrole-2-sulfonamide]
11 | 0.1832 | CNc1cc2nc(C)[nH]c(=O)c2cc1S(=O)(=O)Nc1ccc(-c2ccccc2)cc1 [Compound 4, N-([1,1′-biphenyl]-4-yl)-2-methyl-7-(methylamino)-4-oxo-3,4-dihydroquinazoline-6-sulfonamide]
12 | 2.209 | Cc1cc(S(=O)(=O)N[C@@H]2COc3cc(F)c(Cl)cc3[C@@H]2O)cc(N2CC(OC(F)F)C2)n1 [Compound 88, N-((3R,4S)-6-chloro-7-fluoro-4-hydroxychroman-3-yl)-2-(3-(difluoromethoxy)azetidin-1-yl)-6-methylpyridine-4-sulfonamide]
13 | 0.6847 | Cc1[nH]c(S(=O)(=O)N[C@@H]2Cc3cc(F)c(Cl)cc3C2)cc1C(=O)N1CC(OC(F)(F)F)C1 [Compound 94, (R)-N-(5-chloro-6-fluoro-2,3-dihydro-1H-inden-2-yl)-5-methyl-4-(3-(trifluoromethoxy)azetidine-1-carbonyl)-1H-pyrrole-2-sulfonamide]
14 | 0.6667 | [2H]C([2H])([2H])c1[nH]c(S(=O)(=O)N[C@@H]2Cc3cc(F)c(Cl)cc3C2)cc1C(=O)N1CC(OC(F)(F)F)C1 [Compound 98, (R)-N-(5-chloro-6-fluoro-2,3-dihydro-1H-inden-2-yl)-5-(methyl-d3)-4-(3-(trifluoromethoxy)azetidine-l-carbonyl)-1H-pyrrole-2-sulfonamide]
15 | 3.783 | Cc1cc(S(=O)(=O)N[C@@H]2COc3cc(F)c(Cl)cc3[C@@H]2O)cc(N2CC(C)(C)C2)n1 [Compound 87, N-((3R,4S)-6-chloro-7-fluoro-4-hydroxychroman-3-yl)-2-(3,3-dimethylazetidin-1-yl)-6-methylpyridine-4-sulfonamide]
16 | 0.3215 | CNc1cc2c(cc1S(=O)(=O)N[C@H]1C[C@H](n3cc(C(F)(F)F)c(C)n3)C1)c(=O)[nH]c(=O)n2C [Compound 61]
17 | 0.6294 | Cc1[nH]c(S(=O)(=O)N[C@H]2Cc3cc(Cl)c(Cl)cc3[C@@]2(C)O)cc1C(=O)N1CC(C)(C#N)C1 (single isomer, unassigned) [Compound 92]
18 | 0.081 | Cc1[nH]c(S(=O)(=O)N[C@]2(Cc3ccc(Cl)cc3)CCOC2)cc1C(=O)N1CC(C)(C#N)C1 (single isomer, unassigned) [Compound 63]
19 | 0.3054 | Cc1[nH]c(S(=O)(=O)N[C@@H]2COc3ccc(Cl)cc3C2)cc1C(=O)N1CC(C)(C#N)C1 [Compound 71, (S)-N-(6-chlorochroman-3-yl)-4-(3-cyano-3-methylazetidine-1-carbonyl)-5-methyl-1H-pyrrole-2-sulfonamide]
20 | 8.204 | CNc1cc2nc(C)[nH]c(=O)c2cc1S(=O)(=O)NC(C)Cc1[nH]c2ccccc2c1C (centres unmarked) [Compound 29, 2-Methyl-N-(1-(3-methyl-1H-indo1-2-yl)propan-2-yl)-7-(methylamino)-4-oxo-3,4-dihydroquinazoline-6-sulfonamide]
21 | 0.4479 | CNc1cc2c(cc1S(=O)(=O)N[C@H]1[C@@H]3CN(c4cccc(F)c4)C[C@@H]31)c(=O)[nH]c(=O)n2C [Compound 22, N-((1R,5S,6s)-3-(3-Fluorophenyl)-3-azabicyclo[3.1.0]hexan-6-yl)-1-methyl-7-(methylamino)-2,4-dioxo-1,2,3,4-tetrahydroquinazoline-6-sulfonamide]
22 | 1.4557 | Cc1[nH]c(S(=O)(=O)NC23CC(c4ccccc4)(C2)C3)cc1C(=O)N1CC(C)(C#N)C1 [Compound 52, 4-(3-Cyano-3-methylazetidine-1-carbonyl)-5-methyl-N-(3-phenylbicyclo[1.1.1]pentan-l-yl)-1H-pyrrole-2-sulfonamide]
23 | 0.4237 | Cc1[nH]c(S(=O)(=O)N[C@@H]2COc3cc(Cl)ccc3C2)cc1C(=O)N1CC(C)(C#N)C1 [Compound 72, (S)-N-(7-chlorochroman-3-yl)-4-(3-cyano-3-methylazetidine-1-carbonyl)-5-methyl-1H-pyrrole-2-sulfonamide]
24 | 8.4932 | Cc1[nH]c(S(=O)(=O)N[C@H]2COc3cc(Cl)ccc3C2)cc1C(=O)N1CC(C)(C#N)C1 (stereo in doubt) [Compound 16, N-(7-chlorochroman-3-yl)-4-(3-cyano-3-methylazetidine-1-carbonyl)-5-methyl-1H-pyrrole-2-sulfonamide]
25 | 5.312 | Cc1cc(S(=O)(=O)N[C@@H]2COc3cc(F)c(Cl)cc3[C@@H]2O)cc(N2CC(C(F)F)C2)n1 [Compound 90]
26 | 0.6931 | CNc1cc2c(cc1S(=O)(=O)N[C@H]1C[C@@H](Nc3ccccc3)C1)c(=O)[nH]c(=O)n2C [Compound 17]
27 | 1.6528 | CNc1cc2c(cc1S(=O)(=O)N[C@H]1CC[C@H](c3ccccc3)CC1)c(=O)[nH]c(=O)n2C [Compound 12]
28 | 11.94 | CNc1ccc(S(=O)(=O)Nc2ccc(N3C[C@H](C)C[C@@H](C)C3)nc2)cc1C(N)=O (relative stereo) [Compound 3, 5-(N-(6-(trans-3,5-dimethylpiperidin-1-yl)pyridin-3-yl)sulfamoyl)-2-(methylamino)benzamide]
29 | 0.1127 | Cc1[nH]c(S(=O)(=O)N[C@@H]2COc3cc(F)c(Cl)cc3[C@@H]2O)cc1C(=O)N1CC(C)(C#N)C1 [Compound 78, N-((3R,4S)-6-chloro-7-fluoro-4-hydroxychroman-3-yl)-4-(3-cyano-3-methylazetidine-1-carbonyl)-5-methyl-1H-pyrrole-2-sulfonamide]
